Results: ChEMBL document CHEMBL1201862, “PubChem BioAssay data set” (2004)
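Briefly, cells in 96-well plates were exposed to five compound concentrations for 48 h, and endpoints were estimated by linear interpolation. Here, GI50 denotes the concentration required for 50% inhibition of growth.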 The source made the active and inactive calls. Rule as the data show it: active = GI50 up to about 1.1 µM and inactive = higher.

What was measured:
Experiment in all cases: NCI tumour cell line growth inhibition, 48 h
[1] = test system: ACHN
[2] = test system: CAKI-1
[3] = test system: CCRF-CEM
[4] = test system: HCT-116
[5] = test system: HOP-62
[6] = test system: HT-29
[7] = test system: K562
[8] = test system: LOX IMVI
[9] = test system: MDA-N
[10] = test system: MOLT-4
[11] = test system: NCI-H23
[12] = test system: NCI/ADR-RES
[13] = test system: OVCAR-3
[14] = test system: OVCAR-4
[15] = test system: OVCAR-8
[16] = test system: RPMI-8226
[17] = test system: SF-268
[18] = test system: SF-295
[19] = test system: SK-MEL-2
[20] = test system: T47D

Measured: GI50

O=C1C(Br)=C(Br)C(=O)c2ccc(=O)ccc21
inactive: [1] 17.6 µM | [2] 28.3 µM | [3] 2.88 µM | [4] 20 µM | [5] 60.1 µM | [6] 30.8 µM | [7] 30.7 µM | [8] 20.6 µM | [9] 22.6 µM | [10] 3.36 µM | [11] 21.2 µM | [12] 20 µM | [13] 20.8 µM | [14] 17.5 µM | [15] 22.3 µM | [16] 20 µM | [17] 30.3 µM | [18] 33.2 µM | [19] 48.9 µM | [20] 24.4 µM

O=C(O)c1nc2cc(Cl)ccc2[nH]c1=O
inactive: [1] > 100 µM | [2] > 100 µM | [3] > 100 µM | [4] > 100 µM | [5] > 100 µM | [6] > 100 µM | [7] > 100 µM | [8] > 100 µM | [9] > 100 µM | [10] > 100 µM | [11] > 100 µM | [12] > 100 µM | [13] > 100 µM | [14] > 100 µM | [15] > 100 µM | [16] > 100 µM | [17] > 100 µM | [18] > 100 µM | [19] > 100 µM | [20] > 100 µM

CC(C)(C)c1ccc(OCC(=O)O)c(Cl)c1
inactive: [1] > 100 µM | [2] > 100 µM | [3] > 100 µM | [4] > 100 µM | [5] > 100 µM | [6] > 100 µM | [7] > 100 µM | [8] > 100 µM | [9] > 100 µM | [10] > 100 µM | [11] > 100 µM | [12] > 100 µM | [13] 60.4 µM | [14] > 100 µM | [15] > 100 µM | [16] > 100 µM | [17] > 100 µM | [18] > 100 µM | [19] > 100 µM | [20] > 100 µM

CC/C=C/C[C@H](O)[C@H]1C[C@H]2O[C@H](CC(=O)OC)C[C@H]2O1
inactive: [1] > 100 µM | [2] > 100 µM | [3] > 100 µM | [4] > 100 µM | [5] > 100 µM | [6] > 100 µM | [7] > 100 µM | [8] > 100 µM | [9] > 100 µM | [10] > 100 µM | [11] > 100 µM | [12] > 100 µM | [13] > 100 µM | [14] > 100 µM | [15] > 100 µM | [16] > 100 µM | [17] > 100 µM | [18] > 100 µM | [19] > 100 µM | [20] > 100 µM

CC(C)(C)OC(=O)N1CCC2(CC1)C(=O)NCN2c1ccccc1
inactive: [1] > 100 µM | [2] > 100 µM | [3] > 100 µM | [4] > 100 µM | [5] > 100 µM | [6] > 100 µM | [7] 77.8 µM | [8] > 100 µM | [9] > 100 µM | [10] > 100 µM | [11] > 100 µM | [12] > 100 µM | [13] > 100 µM | [14] > 100 µM | [15] > 100 µM | [16] > 100 µM | [17] > 100 µM | [18] > 100 µM | [19] > 100 µM | [20] > 100 µM

Cc1ccc(OCC2OC(n3cnc4c(Br)nc(Br)nc43)CC2Oc2ccc(C)cc2)cc1 (stereo not given)
inactive: [1] 2.32 µM | [2] 1.97 µM | [3] 2.7 µM | [4] 1.89 µM | [5] 3.61 µM | [6] 2.9 µM | [7] 2.57 µM | [8] 1.93 µM | [9] 2.94 µM | [10] 2.1 µM | [11] 4.55 µM | [12] 9.59 µM | [13] 5.6 µM | [14] 3.12 µM | [15] 3.69 µM | [16] 9.29 µM | [17] 12.9 µM | [18] 8.49 µM | [19] 2.75 µM | [20] 10.8 µM

C=C(CCOC)CCC1CCCCC/C1=N\N(C)C (stereo not given)
inactive: [1] > 100 µM | [2] > 100 µM | [3] > 100 µM | [4] > 100 µM | [5] > 100 µM | [6] > 100 µM | [7] > 100 µM | [8] > 100 µM | [9] > 100 µM | [10] > 100 µM | [11] > 100 µM | [12] > 100 µM | [13] > 100 µM | [14] > 100 µM | [15] > 100 µM | [16] > 100 µM | [17] > 100 µM | [18] > 100 µM | [19] > 100 µM | [20] > 100 µM

COc1cc(CNc2ccc3nc4n(c(=O)c3c2)CCCCC4)cc(OC)c1OC
inactive: [1] 35.2 µM | [2] 64 µM | [3] 13.6 µM | [4] 57.5 µM | [5] 95.1 µM | [6] 81.7 µM | [7] > 100 µM | [8] 55.2 µM | [9] 46.2 µM | [10] 32.7 µM | [11] 37.2 µM | [12] 40.4 µM | [13] 39.8 µM | [14] 22.7 µM | [15] > 100 µM | [16] 72.3 µM | [17] 86.7 µM | [18] 47.9 µM | [19] 40.4 µM | [20] 24.1 µM

CN1C2CCC1C(C(O)c1ccccc1[N+](=O)[O-])C(=O)C2 (stereo not given)
inactive: [1] > 100 µM | [2] 38.4 µM | [3] 46.9 µM | [4] 32.3 µM | [5] 45.3 µM | [6] 32.4 µM | [7] 32.1 µM | [8] 41.7 µM | [9] 27 µM | [10] 47.4 µM | [11] 73.8 µM | [12] 23.4 µM | [13] 34.7 µM | [14] 77.3 µM | [15] 31.6 µM | [16] 40.8 µM | [17] 57.1 µM | [18] 58.1 µM | [19] > 100 µM | [20] 26.6 µM

CCCCCCCCCc1c(O)c(O)c(CCCCCCCCC)c(CCCCCCCCC)c1CCCCCCCCC
inactive: [1] > 100 µM | [2] > 100 µM | [3] 31 µM | [4] > 100 µM | [5] > 100 µM | [6] > 100 µM | [7] 65.9 µM | [8] > 100 µM | [9] 50.6 µM | [10] > 100 µM | [11] > 100 µM | [12] > 100 µM | [13] 37.9 µM | [14] > 100 µM | [15] > 100 µM | [16] > 100 µM | [17] > 100 µM | [18] > 100 µM | [19] > 100 µM | [20] > 100 µM
